System: P38MAPK
Assay: Phosphorylated P38MAPK in CAM tissue lysates (Western blot)
Format: in vivo, chick
Settings: peptide treated CAMs; FIG. 6B
Experimental: The chick chorioallantoic membrane (CAM) assays were carried out with some modifications (19). […] Filter discs either non-treated (inflammation assays) pretreated (angiogenesis assays) with cortisone acetate (3.0 mg/ml) containing RPMI only or FGF-2 (40 ng). CAMs were either non-treated or treated topically with Mab XL313, XL166 or a non-specific control antibody (10 μg/embryo every 24 h for three consecutive treatments). […] At the end of the incubation period the embryos were sacrificed and the CAM tissues were analyzed. Angiogenesis was quantified by counting the number of angiogenic branching blood vessels within the area of the filter disc. The angiogenic index was determined by subtracting the mean number of blood vessel branch points from untreated CAMs from each experimental condition. Eight to twelve embryos were used per condition and experiments were repeated at least three times.
Whole cell and CAM tissue lysates were collected in RIPA buffer supplemented with 1× protease inhibitor and 1× phosphatase inhibitor and were run on polyacrylamide gels using denaturing conditions. Prior to loading the gels, 6× sample buffer was added to each of the lysates (final concentration 1×) and boiled for five minutes. Twenty to 50 μg of total protein were loaded into each lane. […] Western blot bands were quantified using Image J software based on pixel intensity.

CQGPRGDKGEC [Mab P-2]
increase in phosphorylation of P38MAPK in CAM tissues as compared to controls: 4 fold

Reference: patent US10906977B2, “Enhancing the therapeutic activity of immune checkpoint inhibitor” (Maine Medical Center Research Institute, priority 2016, dated 2021)
